Literature values, collected in patent US20090023692A1, “COMPOSITIONS FOR INHIBITING AND PREVENTING VASCULAR OCCLUSION CONTAINING NUTRITIONAL SUPPLEMENTS” (NeursoSci, Inc., priority 2005, published 2009).

Settings: daily administration of low doses (approximately 80-100 mg), patients at risk for cardiovascular events

In the case of `CC(=O)Oc1ccccc1C(=O)O` [aspirin, acetylsalicylic acid], the “reduction of second heart attacks, strokes, and cardiovascular deaths” value is listed as “at least 25%”.
